# Experimental data: ChEMBL document CHEMBL1201862, “PubChem BioAssay data set” (2004)
# Calls of active or inactive are those of the source.
# Experiments:
# [1] = target: T1, Heat shock factor protein 1 (Mus musculus, UniProt P38532); test: enhancement of HSF1-driven luciferase signal – cell-based, NIH3T3, luminescence, dose retest, confirmation (AID 435004); format: functional;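 further: stress induced by proteasome inhibitor MG132 added 30 min after compound; luciferase reporter driven by HSF1 response element in NIH3T3 cells; actives raise luminescence as potentiators of the MG132 stress response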
# T1 sequence (P38532 whole entry): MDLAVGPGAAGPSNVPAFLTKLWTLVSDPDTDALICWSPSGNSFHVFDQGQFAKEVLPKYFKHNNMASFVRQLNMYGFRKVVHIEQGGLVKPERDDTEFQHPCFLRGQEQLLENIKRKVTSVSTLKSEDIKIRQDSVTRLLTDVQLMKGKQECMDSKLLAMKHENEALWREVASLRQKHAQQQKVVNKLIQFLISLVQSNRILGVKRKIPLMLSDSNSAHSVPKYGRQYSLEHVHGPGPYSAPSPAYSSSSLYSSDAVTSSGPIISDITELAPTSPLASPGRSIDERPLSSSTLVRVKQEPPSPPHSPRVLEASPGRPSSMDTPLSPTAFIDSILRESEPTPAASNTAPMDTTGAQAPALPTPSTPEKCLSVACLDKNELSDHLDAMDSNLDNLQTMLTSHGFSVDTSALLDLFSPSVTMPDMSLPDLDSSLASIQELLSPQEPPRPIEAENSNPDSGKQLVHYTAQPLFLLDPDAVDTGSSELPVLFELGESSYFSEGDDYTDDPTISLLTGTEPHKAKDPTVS
# [2] = target: T2, Disintegrin and metalloproteinase domain-containing protein 17 (Homo sapiens, UniProt P78536); test: exosite inhibitors of ADAM17, dose response, biochemical (AID 743260)
# T2 sequence (P78536 whole entry, the tested form may be a part): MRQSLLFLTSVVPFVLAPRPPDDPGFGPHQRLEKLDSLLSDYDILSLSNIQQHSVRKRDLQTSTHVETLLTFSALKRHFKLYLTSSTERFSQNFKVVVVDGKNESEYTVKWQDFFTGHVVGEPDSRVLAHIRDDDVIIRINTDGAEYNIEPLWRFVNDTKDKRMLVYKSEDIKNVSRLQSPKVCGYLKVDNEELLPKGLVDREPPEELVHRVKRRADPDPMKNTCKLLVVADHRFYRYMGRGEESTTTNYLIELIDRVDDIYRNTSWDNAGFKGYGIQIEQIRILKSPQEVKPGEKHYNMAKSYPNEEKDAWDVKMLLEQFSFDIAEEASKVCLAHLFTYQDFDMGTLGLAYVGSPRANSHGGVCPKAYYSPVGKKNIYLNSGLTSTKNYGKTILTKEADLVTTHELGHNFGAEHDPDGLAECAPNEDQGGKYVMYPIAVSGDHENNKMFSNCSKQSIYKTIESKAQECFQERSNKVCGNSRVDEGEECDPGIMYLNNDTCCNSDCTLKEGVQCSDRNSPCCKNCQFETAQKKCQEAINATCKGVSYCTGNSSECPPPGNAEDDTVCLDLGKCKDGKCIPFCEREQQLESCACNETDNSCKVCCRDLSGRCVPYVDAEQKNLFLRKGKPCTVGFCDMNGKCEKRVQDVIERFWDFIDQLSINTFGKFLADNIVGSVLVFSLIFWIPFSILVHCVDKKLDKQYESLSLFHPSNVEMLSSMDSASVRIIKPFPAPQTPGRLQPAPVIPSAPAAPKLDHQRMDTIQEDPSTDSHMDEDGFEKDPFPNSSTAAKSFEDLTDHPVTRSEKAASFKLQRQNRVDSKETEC
# [3] = general mammalian cell viability loss – inhibitor set, cherry-pick, set 2, cytotoxicity control for miR-122 modulator project, dose response (AID 720697); format: functional, cell-based
# H9c2 = test: cells; format: functional, cell-based; conditions: Rattus norvegicus, H9c2, Myocardium;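 further: confirmatory concentration-response retest of ultra-high-throughput screening hits for modulation of myocardial damage; cell death induced by hydrogen peroxide oxidative stress; compound pretreatment for 60 min then peroxide exposure for 2 h; potency is for protecting the cells against peroxide damage rather than for killing them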
# Galanin receptor type 3 = Galanin receptor type 3 (Homo sapiens, UniProt O60755); test: Fluorescence-based cell-based primary high throughput dose response assay to identify antagonists of the Galanin Receptor 3 (GalR3).; format: functional
# Sequence of Galanin receptor type 3 (O60755 whole entry): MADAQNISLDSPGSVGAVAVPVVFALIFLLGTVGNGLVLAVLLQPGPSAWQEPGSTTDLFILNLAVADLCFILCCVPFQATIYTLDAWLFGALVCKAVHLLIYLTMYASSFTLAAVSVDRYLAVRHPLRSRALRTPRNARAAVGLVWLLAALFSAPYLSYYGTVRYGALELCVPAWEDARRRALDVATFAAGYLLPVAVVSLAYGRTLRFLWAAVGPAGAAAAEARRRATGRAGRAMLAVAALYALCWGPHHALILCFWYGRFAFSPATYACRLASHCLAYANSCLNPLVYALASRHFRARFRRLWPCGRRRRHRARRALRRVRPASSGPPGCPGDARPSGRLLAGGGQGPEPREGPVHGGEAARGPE
# cells [4] = format: functional, cell-based; conditions: HEK-CNG
# [5] = THP-1 cell cytotoxicity, dose response, cytotoxicity control for non-replicating M. tuberculosis project (AID 489025); format: functional
# cells [6] = format: functional
# [7] = target: Fructose-bisphosphate aldolase (Mycobacterium tuberculosis, UniProt P9WQA3); test: Fluorescence-based biochemical high throughput dose response assay for inhibitors of the fructose-bisphosphate aldolase (FBA) of M. tuberculosis.; format: functional
# Sequence of Fructose-bisphosphate aldolase (P9WQA3 whole entry, the tested form may be a part): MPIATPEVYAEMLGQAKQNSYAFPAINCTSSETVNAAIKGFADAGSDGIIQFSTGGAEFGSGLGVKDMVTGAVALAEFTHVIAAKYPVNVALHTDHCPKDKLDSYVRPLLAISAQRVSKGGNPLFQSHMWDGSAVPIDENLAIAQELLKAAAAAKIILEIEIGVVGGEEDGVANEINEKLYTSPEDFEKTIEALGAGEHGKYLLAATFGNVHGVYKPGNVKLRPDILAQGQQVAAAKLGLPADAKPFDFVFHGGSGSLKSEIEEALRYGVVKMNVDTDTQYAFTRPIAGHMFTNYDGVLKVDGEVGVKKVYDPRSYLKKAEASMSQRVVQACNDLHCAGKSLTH
# [8] = target: T2, Disintegrin and metalloproteinase domain-containing protein 17; test: inhibition of ADAM17 substrate cleavage – biochemical, quenched FRET substrate, counter-screen for ADAM10 exosite inhibitor project, dose response (AID 743253)
# [9] = intracellular Trypanosoma cruzi inhibitors in host cells – cell-based, plate reader, cherry-pick samples, set 3, dose response (AID 651818); format: functional;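 further: compounds incubated with infected cells for about four days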
# Paired box protein Pax-8 = Paired box protein Pax-8 (Homo sapiens, UniProt Q06710); test: PAX8 transcriptional activity inhibition in RMG-I – RMG-I cells, luciferase, cherry-pick, dose response (AID 687027); format: functional, cell-based;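 further: luciferase reporter driven by Pax8 target thyroperoxidase promoter measured by SteadyGlo luminescence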
# Sequence of Paired box protein Pax-8 (Q06710 whole entry): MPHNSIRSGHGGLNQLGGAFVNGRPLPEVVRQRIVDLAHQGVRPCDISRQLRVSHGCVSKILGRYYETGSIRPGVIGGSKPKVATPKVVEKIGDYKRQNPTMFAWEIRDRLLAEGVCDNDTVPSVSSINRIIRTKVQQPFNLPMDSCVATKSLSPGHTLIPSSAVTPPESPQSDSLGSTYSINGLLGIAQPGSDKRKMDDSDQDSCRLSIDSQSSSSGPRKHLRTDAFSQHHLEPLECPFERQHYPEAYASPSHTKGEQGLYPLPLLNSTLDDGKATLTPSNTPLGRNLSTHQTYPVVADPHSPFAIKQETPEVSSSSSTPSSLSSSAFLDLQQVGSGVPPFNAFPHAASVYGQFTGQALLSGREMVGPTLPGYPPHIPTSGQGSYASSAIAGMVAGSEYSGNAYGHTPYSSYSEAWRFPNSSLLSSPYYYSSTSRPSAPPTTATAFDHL
# [10] = OVCAR-3 cell viability loss – plate reader, dry powder samples, PAX8 inhibitor project, dose response (AID 743044); format: functional, cell-based
# [11] = IGROV1 cell killing – plate reader, dry powder samples, PAX8 inhibitor project, dose response (AID 743043); format: functional, cell-based; conditions: IGROV-1
# [12] = OVCAR8 cell viability loss – plate reader, dry powder samples, PAX8 project, dose response (AID 743197); format: functional, cell-based; conditions: OVCAR-8
# [13] = potency of ADAM10 substrate cleavage blockers – biochemical, QFRET, dose response (AID 743254);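 further: ADAM10 enzyme with the DM2 quenched FRET peptide as substrate; EDANS fluorescence gain as the protease cuts the substrate; inhibitor potency against ADAM10 proteolytic activity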
# [14] = general cell-killing toxicity readout – plate reader, dry powder samples, cytotoxicity control for PAX8 inhibitor project, dose response (AID 743021); format: functional, cell-based
# [15] = T. cruzi growth inhibition in host cells, dose response, cell-based, plate reader, dry powder, set 2 (AID 652275); format: functional
# [16] = viability loss in HEK293T cells – cell-based, cherry-picks, cytotoxicity control for HIV Vif inhibitor project, dose response (AID 652208); format: functional
# [17] = cytotoxicity in MITF-independent A375 cells – cell-based, CellTiter-Glo luminescence, dry powder, set 4, counter-screen for MITF inhibitor project, dose response (AID 624364); format: functional; conditions: A-375;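 further: A375 melanoma cells are MITF independent so this is a counter screen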
# [18] = viability of PTEN-deleted HCT116 cells – cell-based, HCT116 PTEN knockout, dose response (AID 1047); format: functional;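 further: HCT116 colon tumor cells with PTEN knocked out; cells exposed to compound for 60 hours before readout; potency for loss of cell viability measured by luminescence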
# [19] = viability of HCT116 lacking mutant beta-catenin – cell-based, human colon tumor, dose response (AID 1045); format: functional;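 further: HCT116 colon tumor cells with beta catenin knocked out; cells exposed to compound for 60 hours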
# [20] = inhibition of ADAM10 peptide cleavage – biochemical, FRET peptide substrate, recombinant human ADAM10, selectivity assay for ADAM17 exosite inhibitor project, dose response (AID 743259);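 further: ADAM10 enzyme cleaving a FRET peptide substrate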
# [21] = Luminescence Cell-Based Dose Response HTS to Identify Inhibitors of 5'UTR Stem-Loop Driven Prion Protein mRNA Translation in H4 Neuroglioblastoma Cells. [Related pubchem assays: 1827 (Project Summary), 1813 (Primary HTS)]; format: functional
# [22] = alpha-synuclein stem-loop luciferase translation blockers – H4 neuroglioma cells, luminescence, confirmation (AID 1988); format: functional, cell-based
# HEK293 = test: EBV LMP1 TES2 canonical NF-kB signalling blockers – cell-based, HEK293, luciferase, cherry-pick, dose response (AID 588343); format: functional; conditions: Homo sapiens
# [23] = A549 cell cytotoxicity, dose response, cytotoxicity control, plate reader, cherry-pick, antagonist series (AID 743412); format: functional, cell-based
# [24] = toxicity toward HepG2 liver cells – cell-based, plate reader, cherry-pick, antagonist series, cytotoxicity control, dose response (AID 743416); format: functional
# [25] = blockers of bursicon-stimulated LGR2 cAMP reporter – cell-based, HEK293, CRE-luciferase reporter, cherry pick, set 2, dose response (AID 743343); format: functional;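 further: transfected cells were stimulated with diluted bursicon conditioned medium after compound addition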
# [26] = blockade of melanocortin 4 receptor signaling – cell-based, plate reader, cherry pick, counter-screen for LGR2 antagonist project, dose response (AID 743444); format: functional;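 further: transfected HEK 293 cells stimulated with alpha-MSH peptide; potency of inhibitors of the alpha-MSH evoked signal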
# [27] = target: T3, High affinity choline transporter 1 (Homo sapiens, UniProt Q9GZV3); test: human choline transporter blockers, potency – cell-based, 5-point CRC, membrane potential dye, dose response (AID 504840); format: functional
# T3 sequence (Q9GZV3 whole entry): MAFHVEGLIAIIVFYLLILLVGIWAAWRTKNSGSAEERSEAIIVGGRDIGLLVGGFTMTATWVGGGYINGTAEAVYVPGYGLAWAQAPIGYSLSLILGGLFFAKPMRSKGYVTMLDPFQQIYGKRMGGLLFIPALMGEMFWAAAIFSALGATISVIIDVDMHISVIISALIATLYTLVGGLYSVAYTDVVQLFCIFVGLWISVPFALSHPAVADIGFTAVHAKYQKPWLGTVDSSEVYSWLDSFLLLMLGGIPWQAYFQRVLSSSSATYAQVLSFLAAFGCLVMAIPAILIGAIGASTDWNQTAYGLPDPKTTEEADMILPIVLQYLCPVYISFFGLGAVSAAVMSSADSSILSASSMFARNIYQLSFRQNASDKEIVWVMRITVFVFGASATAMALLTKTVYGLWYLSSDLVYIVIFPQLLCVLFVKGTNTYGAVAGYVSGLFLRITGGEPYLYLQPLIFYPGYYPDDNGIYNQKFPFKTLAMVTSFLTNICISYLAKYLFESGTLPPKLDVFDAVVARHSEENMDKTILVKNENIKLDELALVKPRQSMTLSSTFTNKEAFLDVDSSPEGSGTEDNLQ
# [28] = target: T3, High affinity choline transporter 1; test: human choline transporter blockers, potency – cell-based, 10-point CRC, membrane potential dye, dose response (AID 588401); format: functional;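 further: membrane potential dye fluorescence of choline-evoked depolarization via CHT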
# Cryptococcus neoformans = test: PubChem AID 686997; format: functional, organism-based
# INS1 = test: INS-1E survival protection against cytokine death – cell-based, luminescence, retest, dose response (AID 449756); format: functional; conditions: Rattus norvegicus;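 further: cell death triggered by IL-1 beta plus TNF-alpha plus IFN-gamma mixture; protective hits raise ATP signal compared with cytokine alone wells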
# Protein Wnt-3a = Protein Wnt-3a (Mus musculus, UniProt P27467); test: antagonism of Wnt3a pathway luciferase reporter – Wnt-LIGHT cells, luminescence, selectivity assay for Gli-SUFU antagonist project, dose response (AID 651570); format: functional; conditions: read-out: IC50_Mean;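 further: Wnt-LIGHT reporter cells stimulated with conditioned medium from Wnt3a-producing cells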
# Sequence of Protein Wnt-3a (P27467 whole entry): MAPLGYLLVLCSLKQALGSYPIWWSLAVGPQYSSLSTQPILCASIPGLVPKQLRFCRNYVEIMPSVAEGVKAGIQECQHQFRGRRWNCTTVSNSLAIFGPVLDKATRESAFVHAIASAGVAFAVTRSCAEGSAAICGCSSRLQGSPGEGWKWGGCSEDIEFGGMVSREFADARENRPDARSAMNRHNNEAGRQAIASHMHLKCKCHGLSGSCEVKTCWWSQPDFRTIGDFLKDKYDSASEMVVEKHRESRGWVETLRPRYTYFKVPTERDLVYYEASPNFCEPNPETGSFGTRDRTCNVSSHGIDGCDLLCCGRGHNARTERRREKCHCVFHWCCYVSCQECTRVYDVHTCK
# [29] = target: T4, COUP transcription factor 2 (Homo sapiens, UniProt P24468); test: Luminescence-based cell-based high throughput dose response assay to identify inhibitors of COUP-TFII (NR2F2).; format: functional;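 further: HEK293 cells transiently cotransfected with COUP-TFII expression vector and reporter; luciferase reporter luminescence driven by COUP-TFII from the pX2-168 reporter plasmid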
# T4 sequence (P24468 whole entry): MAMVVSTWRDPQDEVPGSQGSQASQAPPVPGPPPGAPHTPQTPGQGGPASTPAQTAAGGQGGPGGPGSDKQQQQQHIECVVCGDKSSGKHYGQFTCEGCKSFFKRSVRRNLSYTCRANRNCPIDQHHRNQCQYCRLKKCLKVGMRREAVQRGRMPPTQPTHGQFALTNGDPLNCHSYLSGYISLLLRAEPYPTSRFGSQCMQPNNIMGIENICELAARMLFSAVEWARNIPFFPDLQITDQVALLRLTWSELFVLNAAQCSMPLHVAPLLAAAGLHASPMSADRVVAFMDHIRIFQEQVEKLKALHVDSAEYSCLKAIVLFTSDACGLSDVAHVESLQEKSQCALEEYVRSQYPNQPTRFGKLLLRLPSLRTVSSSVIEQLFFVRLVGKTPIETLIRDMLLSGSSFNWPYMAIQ
structure (smiles),measurement,setting,value
COc1cc(-c2nc(-c3ccccc3)c(-c3ccc4c(c3)-c3ccccc3S4(=O)=O)[nH]2)cc(OC)c1O,EC50,[1],101 µM (active)
same,IC50,[2],> 69.5 µM (inactive)
CCC(=O)N1[C@H](CO)[C@@H](c2ccccc2)[C@@H]1CN(C(C)C)S(C)(=O)=O,AC50,[3],0.51 µM (active)
Cc1noc(C)c1Cn1nc(C(=O)O)c2ccccc2c1=O,IC50,H9c2,18.6 µM (active)
same,IC50,Galanin receptor type 3,> 29.9 µM (inactive)
same,EC50,cells [4],> 29.9 µM (inactive)
COc1ccc2nc(N=C(N)NC(=O)C(C)(C)C)nc(C)c2c1,CC50,[5],> 40 µM (active)
same,IC50,cells [6],9.61 µM (active)
same,IC50,[7],1.89 µM (active)
CC(C)C[C@H](NC(=O)c1nc[nH]c1C(=O)Nc1ccc(CNC(=O)OC(C)(C)C)cc1)C(=O)OC(C)(C)C,IC50,[8],> 69.5 µM (inactive)
C[C@@H]1CN([C@@H](C)CO)C(=O)c2cc(NC(=O)Nc3ccc(C(F)(F)F)cc3)ccc2O[C@H]1CN(C)C(=O)Nc1ccc(C(F)(F)F)cc1,AC50,[9],3.41 µM (active)
same,AC50,Paired box protein Pax-8,5.97 µM (active)
same,AC50,[10],42.1 µM (active)
same,AC50,[11],52.1 µM (active)
same,AC50,[12],61.2 µM (active)
COc1ccc(NC(S)=Nc2cc(-c3ccccc3)[nH]n2)cc1Cl,IC50,[13],> 69.5 µM (inactive)
same,IC50,[8],> 69.5 µM (inactive)
C[C@@H]1CN([C@@H](C)CO)C(=O)Cc2cc(NC(=O)Cc3ccccc3)ccc2O[C@H]1CN(C)Cc1ccc(-c2ccccc2)cc1,AC50,Paired box protein Pax-8,9.31 µM (active)
same,AC50,[14],45.7 µM (active)
C[C@H]1CN([C@@H](C)CO)C(=O)c2cccc(NC(=O)c3ccncc3)c2O[C@@H]1CN(C)Cc1cc(Cl)cc(Cl)c1,AC50,[15],0.0105 µM (active)
CC(C)C[C@H](NC(=O)c1[nH]cnc1C(=O)Nc1ccc(CNC(=O)OC(C)(C)C)cc1)C(=O)OC(C)(C)C,IC50,[13],> 69.5 µM (inactive)
O=C(/C=C/c1ccccc1)Nc1nc[nH]n1,AC50,[16],23.6 µM (active)
C=CCNC1=C(NS(=O)(=O)c2cccs2)C(=O)c2ccccc2C1=O,AC50,[17],> 70 µM (inactive)
COc1cc(-c2nc(-c3ccc4c(c3)-c3ccccc3S4(=O)=O)c(-c3ccccc3)[nH]2)cc(OC)c1O,EC50,[18],14 µM (active)
same,EC50,[19],19.8 µM (active)
same,IC50,[20],> 69.5 µM (inactive)
C[C@@H]1CCCCO[C@H](CN(C)Cc2ccc(Cl)c(Cl)c2)[C@@H](C)CN([C@@H](C)CO)C(=O)c2cc(NC(=O)Cc3ccccc3)ccc2O1,AC50,Paired box protein Pax-8,11.2 µM (active)
same,AC50,[10],33.4 µM (active)
same,AC50,[11],50.5 µM (active)
same,AC50,[12],> 70 µM (inactive)
O=C(NCCc1ccccc1)c1ccc2nccnc2c1,EC50,[21],9.34 µM (active)
same,EC50,[22],9.37 µM (active)
same,AC50,HEK293,3.05 µM (active)
same,AC50,[23],22.1 µM (active)
same,AC50,[24],20.3 µM (active)
same,AC50,[25],5 µM (active)
same,AC50,[26],4.77 µM (active)
COc1ccc2nc3c(O)n4c(nc-3c2c1)SCC4,IC50,[7],1.4 µM (active)
Cc1ccc(NS(=O)(=O)c2cccc(C(=O)NCC(c3ccco3)N3CCCCC3)c2)cc1 (stereo unspecified),IC50,[27],9.8 µM (active)
same,IC50,[28],5.39 µM (active)
COC(=O)C1=C(C)N(Cc2ccc(F)cc2)C(=S)NC1c1cccc(Cl)c1 (stereo unspecified),AC50,Cryptococcus neoformans,49.5 µM (active)
same,AC50,Cryptococcus neoformans; Cryptococcus neoformans,> 70 µM (inactive)
CC(=O)Nc1ccc(-c2cc(-c3ccc(NC(C)=O)cc3)nc(-c3ccc(NC(C)=O)cc3)n2)cc1,AC50,[3],8.27 µM (active)
NC(=O)c1c(-c2ccc(Cl)cc2Cl)csc1NC(=O)Cc1ccccc1,AC50,INS1,2.86 µM (active)
same,IC50,Protein Wnt-3a,1.91 µM (active)
same,IC50,Galanin receptor type 3,0.513 µM (active)
same,EC50,cells [4],> 29.9 µM (inactive)
same,IC50,[29],5.15 µM (active)
CCc1ccc2[nH]c3nc(SCC(=O)NNC(=O)c4ccc(C(C)(C)C)cc4)nnc3c2c1,AC50,[16],28.6 µM (active)
COc1ccc(-c2cc(=O)c3cc(O)ccc3o2)cc1,IC50,[27],4.38 µM (active)
same,IC50,[28],3.64 µM (active)
